According to patent publication US20220227773A1, “FUSED RING COMPOUND, PREPARATION METHOD THEREFOR AND USE THEREOF” (SHANGHAI INSTITUTE OF MATERIA MEDICA, CHINESE ACADEMY OF …, priority 2019, published 2022):
Structures can show the parent of a compound that is named as a salt. Where two headings read alike, the source gives them in different places.

Columns and labels:
[1] = target: T1, hSERT (5-HTT) in HEK293-hSERT cells (Homo sapiens, UniProt P31645); test: 5-HTT reuptake activity assay (fluorescence neurotransmitter transporter uptake kit); type: cell-based; settings: serotonin reuptake inhibition
T1 construct: expressed in transfected cells; host or cells: HEK293

[2] = target: T2, human recombinant 5-HT3 receptor (Homo sapiens, UniProt P46098); test: 5-HT3 receptor affinity assay (3H-BRL 43694 radioligand binding); settings: read-out: inhibition (%) at 1 μM
T2 construct: expressed in transfected cells; host or cells: HEK293 (membrane preparation)
T2 sequence (P46098 24-478): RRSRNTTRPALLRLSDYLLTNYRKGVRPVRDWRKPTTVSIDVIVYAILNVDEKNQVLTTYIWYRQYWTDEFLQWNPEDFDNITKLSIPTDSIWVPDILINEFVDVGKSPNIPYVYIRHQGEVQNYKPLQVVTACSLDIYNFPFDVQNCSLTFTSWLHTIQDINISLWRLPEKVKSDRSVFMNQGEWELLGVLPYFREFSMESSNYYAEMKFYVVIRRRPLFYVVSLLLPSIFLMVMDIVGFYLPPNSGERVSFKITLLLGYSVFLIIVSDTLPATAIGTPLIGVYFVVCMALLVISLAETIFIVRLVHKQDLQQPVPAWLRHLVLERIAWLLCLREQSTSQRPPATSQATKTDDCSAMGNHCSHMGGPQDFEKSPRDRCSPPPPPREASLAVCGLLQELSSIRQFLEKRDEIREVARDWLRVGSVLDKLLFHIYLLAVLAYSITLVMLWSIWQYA

mice [3] = test: Tail suspension test (TST) in mice; type: in vivo; settings: Mus musculus, ip
Procedure: (§1) 3. In Vivo Drug Efficacy Test (Mouse Forced Swimming Model)
(§2) Experimental animals: C57BL/6 mice (Shanghai Xipuer-Bikai Experimental Animal Co., Ltd.), male, 6 weeks old, weighing 15-20 g. ICR mice (Shanghai Xipuer-Bikai Experimental Animal Co., Ltd.), male, 6 weeks old, weighing 20-25 g. All the ordered mice were fed in a standard environment for 2-3 weeks before test.
Tail suspension test (TST): the mice were tail fixed to the apparatus with a medical tape for 6 min, the whole process was recorded by the camera. When analyzing the data, only the immobility time of the mice in the last 4 min was counted.
(§3) The results were analyzed by one-way analysis of variance. […] FST: Forced swimming test; TST: Tail suspension test.

mice [4] = test: Forced swimming test (FST) in mice; type: in vivo; settings: Mus musculus
Procedure: as §1, §2
Forced Swimming Test (FST): in the forced swimming apparatus, the water level is 45 cm, and the water temperature is 25° C. Before the experiment, the mice were placed in the experimental room for 1 h for adapting to the environment. At the beginning of the experiment, the mice were placed in the apparatus for 6min, and the whole process was recorded with a camera. When analyzing the data, only the immobility time of the mice in the last 4 min was counted, and the result was expressed by mean±SD.
as §3

[5] = TST, dose significantly reducing immobility time of mice, read-out: Effective dose
[6] = read-out: Effective dose (mg/kg)
[7] = ip, read-out: Effective dose (mg/kg)
[8] = 1 μM compound, 0.5 nM 3H-BRL 43694, HEK293 membranes
[9] = po, read-out: Effective dose (mg/kg)

T1 sequence (P31645 whole entry): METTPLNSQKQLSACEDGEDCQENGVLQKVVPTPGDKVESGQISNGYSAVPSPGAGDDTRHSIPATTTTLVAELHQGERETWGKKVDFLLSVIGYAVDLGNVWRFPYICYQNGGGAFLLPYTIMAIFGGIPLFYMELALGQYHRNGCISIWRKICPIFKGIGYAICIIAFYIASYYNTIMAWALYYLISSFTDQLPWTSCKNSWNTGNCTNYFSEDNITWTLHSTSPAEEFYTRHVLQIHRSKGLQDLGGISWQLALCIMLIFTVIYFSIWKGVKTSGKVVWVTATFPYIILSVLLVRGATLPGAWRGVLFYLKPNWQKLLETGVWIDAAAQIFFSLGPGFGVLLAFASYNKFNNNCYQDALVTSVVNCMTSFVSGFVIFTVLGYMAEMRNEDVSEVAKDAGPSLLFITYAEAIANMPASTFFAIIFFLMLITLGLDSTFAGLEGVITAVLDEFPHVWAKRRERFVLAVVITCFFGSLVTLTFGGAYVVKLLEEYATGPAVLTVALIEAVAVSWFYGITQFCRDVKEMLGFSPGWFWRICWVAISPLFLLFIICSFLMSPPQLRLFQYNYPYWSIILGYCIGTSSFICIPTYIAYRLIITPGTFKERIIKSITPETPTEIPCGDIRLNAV

Structure (SMILES)	IC50 [1] [nM]	inhibition at 1 µM [2] [%]	minimal effective dose (mice [3]; [5]) [mg/kg]	minimal effective dose (mice [3]; [6]) [mg/kg]	minimal effective dose (mice [4]; [7]) [mg/kg]	inhibition at 1 µM [2, 8] [%]	minimal effective dose (mice [4]; [9]) [mg/kg]	minimal effective dose (mice [4]; po, FST, dose significantly reducing immobility time of mice, read-out: Effective dose) [mg/kg]
O=C(O)/C=C\C(=O)O.c1cc(N2CC3CCNCCC3C2)c2ccsc2c1 (stereo not drawn) [Example 41, 2-(Benzo[b]thiophen-4-yl)decahydropyrrolo[3,4-d]azepine maleate]	< 10	86	10					
O=C(O)/C=C\C(=O)O.c1cc(N2CCC3CNCC3CC2)c2sccc2c1 (stereo not drawn) [Example 36, 6-(Benzo[b]thiophen-7-yl)decahydropyrrolo[3,4-d]azepine maleate]	< 10	89	10					
CN1CC2CN(c3cccc(Cl)c3Cl)CC2C1.O=C(O)C(=O)O (stereo not drawn) [Example 28, 2-(2,3-dichlorophenyl)-5-methyloctahydropyrrolo[3,4-c]pyrrole oxalate]	< 200	82		10				
Clc1cccc(N2CCC3CNCC3CC2)c1Cl.O=C(O)/C=C\C(=O)O (stereo not drawn) [Example 37, 6-(2,3-dichlorophenyl)decahydropyrrolo[3,4-d]azepine maleate]	< 10	80			10			
O=C(O)/C=C\C(=O)O.c1cc2cc(N3CC4CNCC4C3)ccc2s1 (stereo not drawn) [Example 14, 2-(Benzo[b]thiophen-5-yl)octahydropyrrolo[3,4-c]pyrrole maleate]	< 10	99			3			
O=C(O)/C=C\C(=O)O.c1cc(N2CC3CNCC3C2)c2sccc2c1 (stereo not drawn) [Example 10, 2-(Benzo[b]thiophen-7-yl)octahydropyrrolo[3,4-c]pyrrole maleate]	< 50	86			10			
CN1CC2CN(c3cccc4ccsc34)CC2C1.O=C(O)C(=O)O (stereo not drawn) [Example 11, 2-(Benzo[b]thiophen-7-yl)-5-methyloctahydropyrrolo[3,4-c]pyrrole oxalate]	< 50				10	86		
Fc1c(N2CC3CNCC3C2)ccc2ccccc12.O=C(O)/C=C\C(=O)O (stereo not drawn) [Example 31, 2-(1-fluoronaphthalen-2-yl)octahydropyrrolo[3,4-c]pyrrole maleate]	< 10	101					20	
O=C(O)/C=C\C(=O)O.c1cc(N2CC3CNCC3C2)c2ccsc2c1 (stereo not drawn) [Example 12, 2-(Benzo[b]thiophen-4-yl)octahydropyrrolo[3,4-c]pyrrole maleate]	< 50	101			3			
CCN1CC2CN(c3ccc4ccccc4c3)CC2C1.O=C(O)C(=O)O (stereo not drawn) [Example 25, 2-ethyl-5-(naphthalen-2-yl)octahydropyrrolo[3,4-c]pyrrole oxalate]			10					
Cl.c1ccc2sc(C3CC4CNCC4C3)cc2c1 (stereo not drawn) [Example 50, 5-(benzothiophen-2-yl)octahydrocyclopenta[c]pyrrole hydrochloride]	< 200				10	83		
CN1CC2CN(c3ccc4sccc4c3)CC2C1.Cl (stereo not drawn) [Example 15, 2-(Benzo[b]thiophen-5-yl)-5-methyloctahydropyrrolo[3,4-c]pyrrole hydrochloride]	< 10					70	2.5	
CN1CC2CN(c3ccc4ccccc4c3F)CC2C1.O=C(O)/C=C\C(=O)O (stereo not drawn) [Example 32, 2-(1-fluoronaphthalen-2-yl)-5-methyloctahydropyrrolo[3,4-c]pyrrole maleate]	< 10	103						20
CN1CC2CN(c3ccc4ccccc4c3)CC2C1 (stereo not drawn) [Example 2, 2-methyl-5-(naphthalen-2-yl)octahydropyrrolo[3,4-c]pyrrole]	< 10					97	5	
c1ccc2cc(N3CC4CNCC4C3)ccc2c1 (stereo not drawn) [Example 1, 2-(naphthalen-2-yl)octahydropyrrolo[3,4-c]pyrrole]	< 10	106					5	
O=C(O)/C=C\C(=O)O.c1ccc2sc(N3CC4CNCC4C3)cc2c1 (stereo not drawn) [Example 22, 2-(Benzo[b]thiophen-2-yl)octahydropyrrolo[3,4-c]pyrrole maleate]	< 50			10				
c1cc2cc(N3CCC4CNCC4CC3)ccc2s1 (stereo not drawn) [Example 7, 6-(Benzothiophen-5-yl)decahydropyrrolo[3,4-d]azepine maleate]	< 10	101	10					
Clc1ccc(N2CCC3CNCC3CC2)cc1Cl (stereo not drawn) [Example 35, 6-(3,4-dichlorophenyl)decahydropyrrolo[3,4-d]azepine]	< 10					98	20	
O=C(O)/C=C\C(=O)O.c1ccc2cc(N3CCC4CNCC4CC3)ccc2c1 (stereo not drawn) [Example 39, 6-(naphthalen-2-yl)decahydropyrrolo[3,4-d]azepine maleate]	< 10	92	10					
Clc1ccc(N2CC3CNCC3C2)cc1Cl (stereo not drawn) [Example 16, 2-(3,4-dichlorophenyl)octahydropyrrolo[3,4-c]pyrrole]	< 10				3	96		
O=C(O)/C=C\C(=O)O.c1cc(N2CCC3CNCC3CC2)c2ccsc2c1 (stereo not drawn) [Example 38, 6-(Benzo[b]thiophen-4-yl)decahydropyrrolo[3,4-d]azepine maleate]	< 10	103	10					
